Patent US8815535B2, “Disk diffusion assay for oritavancin” (The Medicines Company, priority 2011, dated 2014)
Like-named read-outs stand apart in the source and are kept apart here.

Legend:
Format in all cases: cell-based, Staphylococcus aureus
[1] = test system: VISA Mu50 (ATCC 700699); test: Disk diffusion assay (zone of inhibition); conditions: for zone of inhibition at 360 µg/disc: ATCC 700699; for zone of inhibition at 100 µg/disc: 100 μg in 4% P80/Span 80 (1:1); for zone of inhibition at 200 µg/disc: 200 μg in 4% P80/Span 80 (1:1)
Excerpt: The study was designed to identify conditions that improve oritavancin diffusion in agar and consequently yield a zone diameter ≧15 mm for the CLSI quality control strain MSSA ATCC 25923. Excipients that increased the disk diffusion of oritavancin in agar relative to disks containing only oritavancin were identified and selected for further study. […] A prediffusion step at room temperature was introduced to maximize oritavancin diffusion prior to initiation of bacterial growth. […] Plates were then incubated overnight at 37° C. Zone diameters around the disks in which bacterial growth was inhibited were measured with a ruler and reported in millimeters.
(§1) Ethanol-sterilized Whatman paper disks (6 mm diameter) were allowed to dry then impregnated with 20 microliters of oritavancin solution containing total amounts ranging from 90 to 360 micrograms. Disks were allowed to dry at room temperature for various times prior to use.
Bacterial suspensions were prepared and adjusted to an optical density of 0.1 at 600 nm. Standard cation-adjusted Mueller Hinton agar plates (90 mm diameter) were seeded with bacterial suspensions by initially swabbing the center of plate then moving outward towards the edge. The plate was swabbed a second time, perpendicular to the orientation of the first swab. […] After 3 hours, two additional disks were placed on the other half of the plate then the plate was incubated overnight at 37° C. Zone diameters were measured with a ruler and reported in millimeters.
(§2) Oritavancin powder was dissolved in freshly-prepared solutions of the indicated excipients at concentrations of 0.625, 1.25, 2.5, 5, and 10 mg/ml (adjusted for potency based on lot 875561L00 purity of 83.1%) by vortexing for a minimum of 5 minutes. Oritavancin solutions in the various excipients, while not visually clear, were free from any apparent particulates as assessed visually. Sterile Oxoid blank disks were impregnated with 20 μl of these oritavancin solutions, resulting in oritavancin disk loads ranging from 12.5 to 200 μg. Unless indicated otherwise, disks were allowed to dry overnight at room temperature prior to use.
(§3) Bacterial suspensions from isolated colonies on overnight cation-adjusted Mueller Hinton agar plates were prepared in sterile saline and adjusted to an optical density of 0.1 at 600 nm Standard cation-adjusted Mueller Hinton agar plates (90 mm diameter) were seeded with bacterial suspensions by initially swabbing the center of plate then moving outward. Swabbing was continued at a right angle and then at an oblique angle to the first and second swabs. Disks were placed upon the seeded plates with sterile forceps. Plates were then incubated overnight at 37° C. and inhibition zone diameters were measured with a ruler and reported in millimeters.

[2] = test system: NRS123 and NRS2; test: Disk diffusion assay, difference in zone diameter between two isolates
Excerpt: The study was designed to identify conditions that improve oritavancin diffusion in agar and consequently yield a zone diameter ≧15 mm for the CLSI quality control strain MSSA ATCC 25923. Excipients that increased the disk diffusion of oritavancin in agar relative to disks containing only oritavancin were identified and selected for further study. […] A prediffusion step at room temperature was introduced to maximize oritavancin diffusion prior to initiation of bacterial growth. In this step, the antimicrobial disks were placed on agar plates seeded with a bacterial isolate and incubated at room temperature for 3 hours. Plates were then incubated overnight at 37° C. Zone diameters around the disks in which bacterial growth was inhibited were measured with a ruler and reported in millimeters.
as §1
Bacterial suspensions were prepared and adjusted to an optical density of 0.1 at 600 nm. Standard cation-adjusted Mueller Hinton agar plates (90 mm diameter) were seeded with bacterial suspensions by initially swabbing the center of plate then moving outward towards the edge. The plate was swabbed a second time, perpendicular to the orientation of the first swab. To assess the impact of prediffusion on diameter of inhibition zones, two disks were immediately placed on one half of the plate and the plate was incubated for 3 hours at room temperature. After 3 hours, two additional disks were placed on the other half of the plate then the plate was incubated overnight at 37° C. Zone diameters were measured with a ruler and reported in millimeters.

[3] = test system: MSSA U781969; test: Disk diffusion assay (zone of inhibition); conditions: 20 μl of 1.25 mg/ml in 4% P80/Span 80 (1:1), calcium alginate swabs, dried overnight, duplicate
Experimental: as §2, §3

[4] = test system: MSSA S815246; test: Disk diffusion assay (zone of inhibition); conditions: 20 μl of 1.25 mg/ml in 4% P80/Span 80 (1:1), calcium alginate swabs, dried overnight, duplicate
Experimental: as §2, §3

[5] = test system: MRSA Q670607; test: Disk diffusion assay (zone of inhibition); conditions: 20 μl of 1.25 mg/ml in 4% P80/Span 80 (1:1), calcium alginate swabs, dried overnight, duplicate
Experimental: as §2, §3

[6] = test system: MRSA U260847; test: Disk diffusion assay (zone of inhibition); conditions: 20 μl of 1.25 mg/ml in 4% P80/Span 80 (1:1), calcium alginate swabs, dried overnight, duplicate
Experimental: as §2, §3

[7] = test system: MRSA U933237; test: Disk diffusion assay (zone of inhibition); conditions: 20 μl of 1.25 mg/ml in 4% P80/Span 80 (1:1), calcium alginate swabs, dried overnight, duplicate
Experimental: as §2, §3

[8] = test system: hVISA NRS36; test: Disk diffusion assay (zone of inhibition); conditions: 25 μg (1.25 mg/ml) in 4% P80/Span 80 (1:1), dried overnight
Experimental: as §2, §3

[9] = test system: MSSA T811355; test: Disk diffusion assay (zone of inhibition); conditions: 20 μl of 1.25 mg/ml in 4% P80/Span 80 (1:1), calcium alginate swabs, dried overnight, duplicate
Experimental: as §2, §3

[10] = test system: MSSA S815247; test: Disk diffusion assay (zone of inhibition); conditions: 20 μl of 1.25 mg/ml in 4% P80/Span 80 (1:1), calcium alginate swabs, dried overnight, duplicate
Experimental: as §2, §3

[11] = test system: MSSA U933236; test: Disk diffusion assay (zone of inhibition); conditions: 20 μl of 1.25 mg/ml in 4% P80/Span 80 (1:1), calcium alginate swabs, dried overnight, duplicate
Experimental: as §2, §3

[12] = test system: MRSA Q670505; test: Disk diffusion assay (zone of inhibition); conditions: 20 μl of 1.25 mg/ml in 4% P80/Span 80 (1:1), calcium alginate swabs, dried overnight, duplicate
Experimental: as §2, §3

[13] = Staphylococcus aureus, Mu50, calcium alginate swab, dried overnight, read-out: Inhibition zone diameter
[14] = Staphylococcus aureus, Mu50, cotton swab, dried overnight, estimate of diameter
[15] = Staphylococcus aureus, MSSA, read-out: Inhibition zone diameter
[16] = Staphylococcus aureus, MRSA, read-out: Inhibition zone diameter

CN[C@H](CC(C)C)C(=O)N[C@H]1C(=O)N[C@@H](CC(N)=O)C(=O)N[C@H]2C(=O)N[C@H]3C(=O)N[C@H](C(=O)N[C@H](C(=O)O)c4cc(O)cc(O)c4-c4cc3ccc4O)[C@H](O[C@H]3C[C@](C)(N)[C@@H](O)[C@H](C)O3)c3ccc(c(Cl)c3)Oc3cc2cc(c3O[C@@H]2O[C@H](CO)[C@@H](O)[C@H](O)[C@H]2O[C@H]2C[C@](C)(NCc3ccc(-c4ccc(Cl)cc4)cc3)[C@@H](O)[C@H](C)O2)Oc2ccc(cc2Cl)[C@H]1O [oritavancin, N-(4-(4-chlorophenyl)benzyl)A82846B]
Inhibition zone diameter ([1]; Mu50, 12.5 μg in 4% P80/Span 80 (1:1), calcium alginate swab, dried overnight): no zone
Inhibition zone diameter ([1]; Mu50, 12.5 μg in 4% P80/Span 80 (1:1), cotton swab, dried overnight, estimate of diameter): no zone
Inhibition zone diameter ([1]; Mu50, 25 μg (20 μl of 1.25 mg/ml) in 4% P80/Span 80 (1:1), calcium alginate swab, dried overnight): no zone
Inhibition zone diameter ([1]; Mu50, 20 μl of 1.25 mg/ml oritavancin in 5% Brij 30): no zone
zone of inhibition at 360 µg/disc ([1]; Staphylococcus aureus, 3 h, 360 μg oritavancin, excipient 10% HPCD, disks made same day, 3 h prediffusion, average of 2 disks, read-out: Average zone diameter): 17.3 mm
zone of inhibition at 360 µg/disc ([1]; Staphylococcus aureus, 192 h, 360 μg in 5% P80, Experiment 2, disks stored 8 days, no prediffusion, read-out: Zone diameter (mm ± SD)): 13 mm
zone of inhibition at 360 µg/disc ([1]; Staphylococcus aureus, 336 h, 360 μg in 5% P80, Experiment 1, disks stored 14 days, no prediffusion, read-out: Zone diameter (mm ± SD)): 13.5 ± 0.7 mm
zone of inhibition at 360 µg/disc ([1]; Staphylococcus aureus, 360 μg in 5% P80, Average of experiments, no prediffusion, read-out: Zone diameter (mm ± SD)): 13.3 ± 0.5 mm
zone of inhibition at 360 µg/disc ([1]; Staphylococcus aureus, 360 μg in 5% P80, Average of experiments, prediffusion, read-out: Zone diameter (mm ± SD)): 14.3 ± 0.3 mm
zone of inhibition at 360 µg/disc ([1]; Staphylococcus aureus, 360 μg in 5% P80, Experiment 1, disks stored 14 days, 3 h prediffusion at room temperature, read-out: Zone diameter (mm ± SD)): 14.5 mm
zone of inhibition at 360 µg/disc ([1]; Staphylococcus aureus, 360 μg in 5% P80, Experiment 2, disks stored 8 days, 3 h prediffusion at room temperature, read-out: Zone diameter (mm ± SD)): 14 mm
zone of inhibition at 360 µg/disc ([1]; Staphylococcus aureus, 360 μg oritavancin, excipient 5% P80, disks stored 5 days at room temperature, 3 h prediffusion, average of 2 disks, read-out: Average zone diameter): 15 mm
zone of inhibition at 25 µg/disc ([1]; Staphylococcus aureus, Mu50, 25 μg in 4% P80/Span 80 (1:1), cotton swab, dried overnight, estimate of diameter): 7 mm
zone of inhibition at 50 µg/disc ([1]; Staphylococcus aureus, Mu50, 50 μg in 4% P80/Span 80 (1:1), calcium alginate swab, dried overnight, read-out: Inhibition zone diameter): 7 mm
zone of inhibition at 50 µg/disc ([1]; Staphylococcus aureus, Mu50, 50 μg in 4% P80/Span 80 (1:1), cotton swab, dried overnight, estimate of diameter): 10 mm
zone of inhibition at 50 µg/disc ([1]; Staphylococcus aureus, Mu50, 50 μg, 4% P80/Span 80 ratio 50:50, dried overnight, estimate of diameter): 10 mm
zone of inhibition at 50 µg/disc ([1]; Staphylococcus aureus, Mu50, 50 μg, 4% P80/Span 80 ratio 60:40, dried overnight, estimate of diameter): 11 mm
zone of inhibition at 50 µg/disc ([1]; Staphylococcus aureus, Mu50, 50 μg, 4% P80/Span 80 ratio 70:30, dried overnight, estimate of diameter): 12 mm
zone of inhibition at 50 µg/disc ([1]; Staphylococcus aureus, Mu50, 50 μg, 4% P80/Span 80 ratio 80:20, dried overnight, estimate of diameter): 12 mm
zone of inhibition at 50 µg/disc ([1]; Staphylococcus aureus, Mu50, 50 μg, 4% P80/Span 80 ratio 90:10, dried overnight, estimate of diameter): 12 mm
zone of inhibition at 100 µg/disc [1, 13]: 8 mm
zone of inhibition at 100 µg/disc [1, 14]: 11 mm
zone of inhibition at 200 µg/disc [1, 13]: 8 mm
zone of inhibition at 200 µg/disc [1, 14]: 10 mm
zone of inhibition at 1250 µg/mL ([1]; Staphylococcus aureus, Mu50, 20 μl of 1.25 mg/ml oritavancin in 1% poly(ethylene glycol) sorbitol hexaoleate, read-out: Inhibition zone diameter): 8 mm
zone of inhibition at 1250 µg/mL ([1]; Staphylococcus aureus, Mu50, 20 μl of 1.25 mg/ml oritavancin in 5% Merpol SE, read-out: Inhibition zone diameter): 9 mm
Difference in diameter (NRS2 subtracted from NRS123) ([2]; 90 μg oritavancin, 2.5% P80): 1.8 mm
Difference in diameter (NRS2 subtracted from NRS123) ([2]; 90 μg oritavancin, 5% P80): 1 mm
Difference in diameter (NRS2 subtracted from NRS123) ([2]; 90 μg oritavancin, 10% P80): −0.3 mm
Difference in diameter (NRS2 subtracted from NRS123) ([2]; 180 μg oritavancin, 2.5% P80): 1.7 mm
Difference in diameter (NRS2 subtracted from NRS123) ([2]; 180 μg oritavancin, 5% P80): 1.3 mm
Difference in diameter (NRS2 subtracted from NRS123) ([2]; 180 μg oritavancin, 10% P80): 1.3 mm
Difference in diameter (NRS2 subtracted from NRS123) ([2]; 360 μg oritavancin, 2.5% P80): 1.8 mm
Difference in diameter (NRS2 subtracted from NRS123) ([2]; 360 μg oritavancin, 5% P80): 0.5 mm
Difference in diameter (NRS2 subtracted from NRS123) ([2]; 360 μg oritavancin, 10% P80): 1 mm
Inhibition zone diameter [3]: 23 mm
zone of inhibition at 1250 µg/mL [3, 15]: 22 mm
Inhibition zone diameter [4]: 22 mm
zone of inhibition at 1250 µg/mL [4, 15]: 21 mm
Inhibition zone diameter [5]: 22 mm
zone of inhibition at 1250 µg/mL [5, 16]: 21 mm
Inhibition zone diameter [6]: 22 mm
zone of inhibition at 1250 µg/mL [6, 16]: 21 mm
Inhibition zone diameter [7]: 22 mm
zone of inhibition at 1250 µg/mL [7, 16]: 21 mm
Inhibition zone diameter ([8]; NRS36): 12 mm
zone of inhibition at 25 µg/disc ([8]; Staphylococcus aureus, NRS36, read-out: Inhibition zone diameter, NRS36): 11 mm
Inhibition zone diameter [9]: 22 mm
zone of inhibition at 1250 µg/mL [9, 15]: 21 mm
Inhibition zone diameter [10]: 21 mm
zone of inhibition at 1250 µg/mL [10, 15]: 20 mm
Inhibition zone diameter [11]: 22 mm
zone of inhibition at 1250 µg/mL [11, 15]: 21 mm
Inhibition zone diameter [12]: 18, 18 mm
zone of inhibition at 1250 µg/mL [12, 16]: 18 mm
